# pIC50: −log10 of the molar value.
# Experiments:
# KAT-8 = KAT-8 (Homo sapiens (Human), UniProt Q9H7Z6); assay: KAT-8 biochemical inhibition assay (SAMDI mass spectrometry)
# Method: KAT-8. Enzyme assay buffer was 50 mM Tris pH 8.0, 0.002% Tween20, 0.005% bovine skin gelatin, and 1 mM dithiothreitol (DTT). For determination of IC50 values, compounds were serially diluted with 2% (v/v) DMSO in the final reaction, pre-incubating each dilution of each compound with 40 μL of assay buffer containing KAT-8 enzyme (12.5 nM final concentration). 10 μL of assay buffer containing 1 μM peptide substrate and 5 μM acetyl coenzyme A (final concentrations) was added. Reactions (50 μL total) were then carried out at 25° C. for 90 minutes. Reactions were terminated by the addition of 0.5% formic acid (final concentration), and a sample of each reaction was analyzed by SAMDI Tech, Inc. (Chicago, Ill.) using self-assembled monolayer desorption/ionization time-of-flight mass spectrometry (Mrksich, M. (2008) Mass spectrometry of self-assembled monolayers: a new tool for molecular surface science. ACS Nano 2, 7-18).
# KAT-6A = KAT-6A (Homo sapiens (Human), UniProt Q92794); assay: KAT-6A biochemical inhibition assay (SAMDI mass spectrometry)
# How it was run: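 IC50 values came from SAMDI time-of-flight mass spectrometry after formic acid quench (0.5% final). Acetylation ran 90 min at 25 °C with 1 μM acetyl coenzyme A and 1 μM peptide substrate, following compound pre-incubation with 12.5 nM KAT-6A in Tris buffer pH 8.0 containing DTT, 2% DMSO final.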
# KAT-5 = KAT-5 (Homo sapiens (Human), UniProt Q92993); assay: KAT-5 biochemical inhibition assay (SAMDI mass spectrometry)
# How it was run: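 Acetylation of 1 μM peptide by 9 nM enzyme with 0.5 μM acetyl-CoA (final) was run 90 min at 25° C in Tris pH 8.0 buffer with DTT, after compound preincubation at 2% DMSO. Formic acid stopped the reaction, and product was quantified by SAMDI mass spectrometry to derive IC50.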
# KAT-7 = KAT-7 (Homo sapiens (Human), UniProt O95251); assay: KAT-7 biochemical inhibition assay (SAMDI mass spectrometry)
# How it was run: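 Read-out was SAMDI time-of-flight MS of formic acid-quenched reactions (0.5% final). Compound dilutions (2% DMSO final) were pre-incubated with 6 nM KAT-7 in 50 mM Tris pH 8.0 with 1 mM DTT, then given 1 μM peptide substrate and 2 μM acetyl-CoA for 120 min at 25 °C. IC50 values were derived.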
# Chain of KAT-6A (Q92794 other isoform, or with tags, fused parts or gaps): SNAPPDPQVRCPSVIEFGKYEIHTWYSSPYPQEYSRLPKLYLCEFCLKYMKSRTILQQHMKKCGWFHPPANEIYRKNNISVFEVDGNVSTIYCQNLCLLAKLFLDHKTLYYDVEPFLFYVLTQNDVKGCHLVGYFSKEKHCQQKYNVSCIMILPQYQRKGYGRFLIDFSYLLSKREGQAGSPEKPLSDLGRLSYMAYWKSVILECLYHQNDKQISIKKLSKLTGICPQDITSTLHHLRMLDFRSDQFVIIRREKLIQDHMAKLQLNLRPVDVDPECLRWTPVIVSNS
# Chain of KAT-5 (Q92993 other isoform, or with tags, fused parts or gaps): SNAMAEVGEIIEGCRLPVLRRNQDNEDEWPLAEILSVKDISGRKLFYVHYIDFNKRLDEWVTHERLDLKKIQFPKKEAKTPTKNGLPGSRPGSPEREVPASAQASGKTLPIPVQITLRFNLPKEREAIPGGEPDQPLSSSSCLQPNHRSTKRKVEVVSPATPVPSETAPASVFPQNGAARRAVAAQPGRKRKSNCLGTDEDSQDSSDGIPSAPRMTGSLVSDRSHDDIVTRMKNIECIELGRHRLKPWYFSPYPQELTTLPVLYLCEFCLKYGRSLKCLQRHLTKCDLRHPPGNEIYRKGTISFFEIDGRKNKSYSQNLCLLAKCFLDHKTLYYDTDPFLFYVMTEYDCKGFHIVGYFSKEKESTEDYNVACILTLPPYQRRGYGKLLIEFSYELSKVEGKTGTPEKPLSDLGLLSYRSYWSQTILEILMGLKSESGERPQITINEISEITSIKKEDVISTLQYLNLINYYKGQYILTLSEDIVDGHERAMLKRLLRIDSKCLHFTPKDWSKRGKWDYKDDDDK
# Chain of KAT-8 (Q9H7Z6 other isoform, or with tags, fused parts or gaps): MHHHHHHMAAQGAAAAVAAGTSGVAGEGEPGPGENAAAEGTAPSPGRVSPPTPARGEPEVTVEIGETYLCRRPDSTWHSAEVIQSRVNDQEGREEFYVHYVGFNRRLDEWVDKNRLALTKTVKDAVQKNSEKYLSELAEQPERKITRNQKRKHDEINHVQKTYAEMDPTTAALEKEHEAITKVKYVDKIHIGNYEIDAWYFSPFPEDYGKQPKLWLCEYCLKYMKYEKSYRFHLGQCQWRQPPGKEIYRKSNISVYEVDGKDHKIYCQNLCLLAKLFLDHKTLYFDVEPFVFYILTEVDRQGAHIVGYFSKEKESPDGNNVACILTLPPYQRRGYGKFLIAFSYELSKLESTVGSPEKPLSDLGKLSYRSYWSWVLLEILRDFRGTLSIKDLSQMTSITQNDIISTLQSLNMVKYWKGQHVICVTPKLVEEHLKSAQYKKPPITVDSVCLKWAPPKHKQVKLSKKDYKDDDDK
# Chain of KAT-7 (O95251 other isoform, or with tags, fused parts or gaps): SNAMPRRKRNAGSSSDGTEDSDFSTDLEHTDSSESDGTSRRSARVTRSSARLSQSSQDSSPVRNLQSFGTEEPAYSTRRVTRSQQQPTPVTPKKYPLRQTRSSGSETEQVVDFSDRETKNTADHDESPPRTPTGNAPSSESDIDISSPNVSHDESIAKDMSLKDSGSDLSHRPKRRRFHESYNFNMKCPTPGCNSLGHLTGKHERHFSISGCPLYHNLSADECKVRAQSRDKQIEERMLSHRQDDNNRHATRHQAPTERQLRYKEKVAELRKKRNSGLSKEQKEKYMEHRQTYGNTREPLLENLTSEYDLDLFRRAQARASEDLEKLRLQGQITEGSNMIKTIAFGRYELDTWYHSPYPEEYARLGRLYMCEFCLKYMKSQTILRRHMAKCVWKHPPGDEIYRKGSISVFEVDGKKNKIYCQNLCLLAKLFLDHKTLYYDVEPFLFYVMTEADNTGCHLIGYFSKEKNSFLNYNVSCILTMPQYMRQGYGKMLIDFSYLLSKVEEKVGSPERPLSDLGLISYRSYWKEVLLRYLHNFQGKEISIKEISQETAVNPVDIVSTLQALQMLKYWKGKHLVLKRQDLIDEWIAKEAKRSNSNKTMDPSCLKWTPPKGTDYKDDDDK
SMILES,pIC50 (KAT-8),pIC50 (KAT-6A),pIC50 (KAT-5),pIC50 (KAT-7)
Cn1cc(-c2cc(Cl)c(F)c(C(=O)NNS(=O)(=O)CC3CCOCC3)c2)cn1 [Compound I-16],< 4.00,< 4.00,4.30 to 5.00,> 5.00
Cn1cnc(-c2cc(Cl)c(F)c(C(=O)NNS(=O)(=O)CC(=O)N3CCCC3)c2)c1 [Compound I-328],4.30 to 5.00,4.30 to 5.00,4.30 to 5.00,> 5.00
COCCn1cnc(-c2cc(C)c(F)c(C(=O)NNS(=O)(=O)CC3CCCNC3)c2)c1 (stereo not shown) [Compound I-136],< 4.00,< 4.00,< 4.00,< 4.00
Cn1cc(-c2cc(Cl)c(F)c(C(=O)NNS(=O)(=O)CC3CCOCC3)c2)nn1 [Compound I-67],< 4.00,4.30 to 5.00,4.30 to 5.00,4.30 to 5.00
CN(C)C(=O)N[C@H]1C[C@H](CS(=O)(=O)NNC(=O)c2cc(-c3cn(C)cn3)cc(Cl)c2F)C1 [Compound I-180],4.30 to 5.00,> 5.00,> 5.00,> 5.00
COCCNC(=O)N1CCC(CS(=O)(=O)NNC(=O)c2cc(-c3cn(C)cn3)cc(Cl)c2F)C1 (stereo not shown) [Compound I-190],4.30 to 5.00,> 5.00,> 5.00,> 5.00
Cn1cc(-c2cc(Cl)c(F)c(C(=O)NNS(=O)(=O)C3CCOCC3)c2)nc1Cl [Compound I-8],< 4.00,4.30 to 5.00,< 4.00,4.30 to 5.00
Cn1cnc(-c2cc(Cl)c(F)c(C(=O)NNS(=O)(=O)C3CC3)c2)c1 [Compound I-19],< 4.00,< 4.00,< 4.00,4.30 to 5.00
Cn1cnc(-c2cc(Cl)c(F)c(C(=O)NNS(=O)(=O)c3ccc(OCc4ccccc4)nc3)c2)c1 [Compound I-354],4.30 to 5.00,4.30 to 5.00,> 5.00,> 5.00
CC(C)C(=O)NC1CCCC(CS(=O)(=O)NNC(=O)c2cc(-c3cn(C)cn3)cc(Cl)c2F)C1 (stereo not shown) [Compound I-206],4.30 to 5.00,> 5.00,> 5.00,> 5.00
Cn1cnc(-c2cc(Cl)c(F)c(C(=O)NNS(=O)(=O)c3cccnc3OCc3ccccc3)c2)c1 [Compound I-374],4.30 to 5.00,> 5.00,> 5.00,> 5.00
Cn1cnc(-c2cc(Cl)c(F)c(C(=O)NNS(=O)(=O)C[C@@H]3CCC[C@@H](N)C3)c2)c1 [Compound I-351],4.30 to 5.00,4.30 to 5.00,4.30 to 5.00,4.30 to 5.00
Cn1cnc(-c2cc(Cl)c(F)c(C(=O)NNS(=O)(=O)C[C@H]3CC[C@@H](NC(=O)C4CCC4)CC3)c2)c1 [Compound I-246],4.30 to 5.00,> 5.00,> 5.00,> 5.00
Cn1cnc(-c2cc(Cl)c(F)c(C(=O)NNS(=O)(=O)N3CCOCC3)c2)c1 [Compound I-108],4.30 to 5.00,4.30 to 5.00,4.30 to 5.00,> 5.00
Cn1cnc(-c2cc(Cl)c(F)c(C(=O)NNS(=O)(=O)C[C@H]3CC[C@H]4CC[C@@H]3N4)c2)c1 [Compound I-261],4.30 to 5.00,4.30 to 5.00,4.30 to 5.00,4.30 to 5.00
COc1ccc(CNC(=O)N[C@H]2C[C@H](CS(=O)(=O)NNC(=O)c3cc(-c4cn(C)cn4)cc(Cl)c3F)C2)cc1 [Compound I-174],4.30 to 5.00,> 5.00,> 5.00,> 5.00
Cn1cnc(-c2cc(Cl)c(F)c(C(=O)NNS(=O)(=O)CC3CCCN(C(N)=O)C3)c2)c1 (stereo not shown) [Compound I-215],4.30 to 5.00,> 5.00,> 5.00,> 5.00
COCCc1nc(-c2cc(Cl)c(F)c(C(=O)NNS(=O)(=O)C3CCOCC3)c2)cn1C [Compound I-119],4.30 to 5.00,4.30 to 5.00,4.30 to 5.00,4.30 to 5.00
Cn1cnc(-c2cc(Cl)c(F)c(C(=O)NNS(=O)(=O)C[C@H]3CCC[C@@H](OCc4ccccc4)C3)c2)c1 [Compound I-290],4.30 to 5.00,4.30 to 5.00,> 5.00,> 5.00
COc1ccc(CN(C)C(=O)N[C@H]2C[C@@H](CS(=O)(=O)NNC(=O)c3cc(-c4cn(C)cn4)cc(Cl)c3F)C2)cc1 [Compound I-161],4.30 to 5.00,> 5.00,> 5.00,> 5.00

SMILES,pIC50 (KAT-8),pIC50 (KAT-6A),pIC50 (KAT-5),pIC50 (KAT-7)
COCCc1nc(-c2cc(Cl)c(F)c(C(=O)NNS(=O)(=O)CC3CCCCC3)c2)cn1C [Compound I-192],4.30 to 5.00,4.30 to 5.00,4.30 to 5.00,> 5.00
Cn1cnc(-c2cc(Cl)c(F)c(C(=O)NNS(=O)(=O)C[C@H]3CC[C@H](N(C)C(=O)OC(C)(C)C)CC3)c2)c1 [Compound I-332],4.30 to 5.00,> 5.00,> 5.00,> 5.00
Cn1cnc(-c2cc(Cl)c(F)c(C(=O)NNS(=O)(=O)C[C@H]3C[C@@H](NC(N)=O)C3)c2)c1 [Compound I-235],4.30 to 5.00,> 5.00,> 5.00,> 5.00
COc1ccc(CNC(=O)NC2CCC(CS(=O)(=O)NNC(=O)c3cc(-c4cn(C)cn4)cc(Cl)c3F)CC2)cc1 (stereo not shown) [Compound I-177],> 5.00,> 5.00,> 5.00,> 5.00
CN1CC(CS(=O)(=O)NNC(=O)c2cc(-c3cn(C)cn3)cc(Cl)c2F)CC1=O (stereo not shown) [Compound I-224],4.30 to 5.00,4.30 to 5.00,4.30 to 5.00,> 5.00
CNC(=O)N[C@H]1C[C@H](CS(=O)(=O)NNC(=O)c2cc(-c3cn(C)cn3)cc(Cl)c2F)C1 [Compound I-188],4.30 to 5.00,4.30 to 5.00,4.30 to 5.00,> 5.00
CN(C)C(=O)N(C)[C@H]1CC[C@H](CS(=O)(=O)NNC(=O)c2cc(-c3cn(C)cn3)cc(Cl)c2F)CC1 [Compound I-366],4.30 to 5.00,> 5.00,> 5.00,> 5.00
Cn1cnc(-c2cc(Cl)c(F)c(C(=O)NNS(=O)(=O)CC3CCCN(S(C)(=O)=O)C3)c2)c1 (stereo not shown) [Compound I-53],4.00 to 4.30,> 5.00,> 5.00,> 5.00
CNc1ccc(S(=O)(=O)NNC(=O)c2cc(-c3cn(C)cn3)cc(Cl)c2F)cc1 [Compound I-382],< 4.00,> 5.00,4.30 to 5.00,> 5.00
O=C(NNS(=O)(=O)CC1CCOCC1)c1cc(-n2ccnc2)cc(Cl)c1F [Compound I-47],< 4.00,4.00 to 4.30,> 5.00,< 4.00
O=C(NNS(=O)(=O)CC1CCCCC1)c1cc(-c2ccccn2)cc(Cl)c1F [Compound I-5],< 4.00,> 5.00,> 5.00,> 5.00
Cc1ccnc(-c2cc(Cl)c(F)c(C(=O)NNS(=O)(=O)CC3CCOCC3)c2)c1 [Compound I-17],< 4.00,> 5.00,> 5.00,> 5.00
Cn1cnc(-c2cc(Cl)c(F)c(C(=O)NNS(=O)(=O)C[C@H]3C[C@H](NC(=O)OC(C)(C)C)C3)c2)c1 [Compound I-124],4.30 to 5.00,> 5.00,> 5.00,> 5.00
Cc1ncn(-c2cc(Cl)c(F)c(C(=O)NNS(=O)(=O)CC3CCOCC3)c2)n1 [Compound I-74],4.30 to 5.00,4.30 to 5.00,4.30 to 5.00,4.30 to 5.00
Cn1cnc(-c2cc(Cl)c(F)c(C(=O)NNS(=O)(=O)CC3CCC3)c2)c1 [Compound I-31],4.30 to 5.00,> 5.00,> 5.00,> 5.00
Cn1cnc(-c2cc(Cl)c(F)c(C(=O)NNS(=O)(=O)CC3CC4CCC3C4)c2)c1 (stereo not shown) [Compound I-308],> 5.00,> 5.00,> 5.00,> 5.00
Cn1cnc(-c2cc(Cl)c(F)c(C(=O)NNS(=O)(=O)C[C@H]3C[C@@H](NC(=O)OC(C)(C)C)C3)c2)c1 [Compound I-114],4.30 to 5.00,> 5.00,> 5.00,> 5.00
O=C(NNS(=O)(=O)CC1CCOCC1)c1cc(-c2cscn2)cc(Cl)c1F [Compound I-48],< 4.00,> 5.00,> 5.00,> 5.00
CC(=O)N1CCC(CS(=O)(=O)NNC(=O)c2cc(-c3cn(C)cn3)cc(Cl)c2F)C1 (stereo not shown) [Compound I-57],4.30 to 5.00,4.30 to 5.00,4.30 to 5.00,> 5.00
COCCN(Cc1ccc(OC)cc1)C(=O)N1CCC(CS(=O)(=O)NNC(=O)c2cc(-c3cn(C)cn3)cc(Cl)c2F)C1 (stereo not shown) [Compound I-189],4.30 to 5.00,> 5.00,> 5.00,> 5.00
